Assay results as given in the supplement of paper PMC10307832.

What was measured:
Assay in all cases: relative viability (nuclei count vs DMSO), 5 days (fraction); higher = more cells survive
HCC-44 = tested on: HCC-44
Procedure, shortened: (§1)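 Lung cancer cell lines, seeded in 1536-well plates, were treated the following day by pin tool with a single drug or with five library-drug doses (not always all listed) in √10 steps on top of a fixed anchor-drug dose. Cells were fixed and nuclei stained in one step after 5 days, and nuclei were counted. Relative viability is the nuclei count for treated wells divided by that for vehicle wells, reported as medians of duplicate plates.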

PC-3 [JPC-3] = tested on: PC-3 [JPC-3]
Procedure, shortened: as §1

NCI-H2085 = tested on: NCI-H2085
Procedure, shortened: as §1

SW 1573 = tested on: SW 1573
Procedure, shortened: as §1

BEN = tested on: BEN
Procedure, shortened: as §1

LCLC-97TM1 = tested on: LCLC-97TM1
Procedure, shortened: as §1

EPLC-272H = tested on: EPLC-272H
Procedure, shortened: as §1

NCI-H2087 = tested on: NCI-H2087
Procedure, shortened: as §1

H3255 = tested on: H3255
Procedure, shortened: as §1

NCI-H1437 = tested on: NCI-H1437
Procedure, shortened: as §1

NCI-H647 = tested on: NCI-H647
Procedure, shortened: as §1

NCI-H358 = tested on: NCI-H358
Procedure, shortened: as §1

NCI-H1666 = tested on: NCI-H1666
Procedure, shortened: as §1

LOU-NH91 = tested on: LOU-NH91
Procedure, shortened: as §1

HOP-62 = tested on: HOP-62
Procedure, shortened: as §1

HCC-827 = tested on: HCC-827
Procedure, shortened: as §1

COR-L 105 = tested on: COR-L 105
Procedure, shortened: as §1

201T = tested on: 201T
Procedure, shortened: as §1

NCI-H1975 = tested on: NCI-H1975
Procedure, shortened: as §1

NCI-H1395 = tested on: NCI-H1395
Procedure, shortened: as §1

EKVX = tested on: EKVX
Procedure, shortened: as §1

NCI-H2126 = tested on: NCI-H2126
Procedure, shortened: as §1

LU99A = tested on: LU99A
Procedure, shortened: as §1

**Q.** Which relative viability (HCC-44; first compound 0.01 µM) does the source give for `CC(C)Oc1cc(Nc2nc(N[C@@H](C)c3ccc(F)cn3)ncc2Cl)n[nH]1` [AZ23] + Cc1nc(NC(=O)N2CCC[C@H]2C(N)=O)sc1-c1ccnc(C(C)(C)C(F)(F)F)c1 [Alpelisib] (partner 2 µM) here?
**A.** The relative viability was 0.858.

**Q.** And the relative viability (HCC-44; first compound 0.03162 µM)?
**A.** Its relative viability is 0.915.

**Q.** What about the relative viability (HCC-44; first compound 0.3162 µM) of the same molecule?
**A.** The relative viability was 0.871.

**Q.** And the relative viability (PC-3 [JPC-3]; first compound 0.01 µM)?
**A.** Its relative viability is 1.14.

**Q.** What about the relative viability (PC-3 [JPC-3]; first compound 0.03162 µM) of the same molecule?
**A.** The relative viability was 1.06.

**Q.** What about the relative viability (PC-3 [JPC-3]; first compound 0.3162 µM) of the same molecule?
**A.** The relative viability was 0.962.

**Q.** What about the relative viability (NCI-H2085; first compound 0.01 µM) of the same molecule?
**A.** Its relative viability is 1.

**Q.** What about the relative viability (NCI-H2085; first compound 0.03162 µM) of the same molecule?
**A.** The relative viability was 0.999.

**Q.** What about the relative viability (NCI-H2085; first compound 0.3162 µM) of the same molecule?
**A.** The relative viability was 0.938.

**Q.** And the relative viability (SW 1573; first compound 0.01 µM)?
**A.** The relative viability was 0.852.

**Q.** And the relative viability (SW 1573; first compound 0.03162 µM)?
**A.** Its relative viability is 0.845.

**Q.** What about the relative viability (SW 1573; first compound 0.3162 µM) of the same molecule?
**A.** The relative viability was 0.712.

**Q.** What about the relative viability (BEN; first compound 0.01 µM) of the same molecule?
**A.** The relative viability was 1.02.

**Q.** What about the relative viability (BEN; first compound 0.03162 µM) of the same molecule?
**A.** The relative viability was 1.18.

**Q.** What about the relative viability (BEN; first compound 0.3162 µM) of the same molecule?
**A.** Its relative viability is 1.09.

**Q.** And the relative viability (LCLC-97TM1; first compound 0.01 µM)?
**A.** Its relative viability is 0.228.

**Q.** What about the relative viability (LCLC-97TM1; first compound 0.03162 µM) of the same molecule?
**A.** The relative viability was 0.246.

**Q.** What about the relative viability (LCLC-97TM1; first compound 0.3162 µM) of the same molecule?
**A.** Its relative viability is 0.245.

**Q.** And the relative viability (EPLC-272H; first compound 0.01 µM)?
**A.** Its relative viability is 0.873.

**Q.** And the relative viability (EPLC-272H; first compound 0.03162 µM)?
**A.** The relative viability was 1.18.

**Q.** What about the relative viability (NCI-H2087; first compound 0.01 µM) of the same molecule?
**A.** The relative viability was 1.39.

**Q.** And the relative viability (NCI-H2087; first compound 0.03162 µM)?
**A.** The relative viability was 1.07.

**Q.** What about the relative viability (NCI-H2087; first compound 0.3162 µM) of the same molecule?
**A.** The relative viability was 1.07.

**Q.** And the relative viability (H3255; first compound 0.01 µM)?
**A.** The relative viability was 0.637.

**Q.** What about the relative viability (H3255; first compound 0.03162 µM) of the same molecule?
**A.** Its relative viability is 0.868.

**Q.** What about the relative viability (H3255; first compound 0.3162 µM) of the same molecule?
**A.** The relative viability was 0.863.

**Q.** And the relative viability (NCI-H1437; first compound 0.01 µM)?
**A.** The relative viability was 0.949.

**Q.** What about the relative viability (NCI-H1437; first compound 0.03162 µM) of the same molecule?
**A.** Its relative viability is 1.15.

**Q.** And the relative viability (NCI-H1437; first compound 0.3162 µM)?
**A.** The relative viability was 1.06.

**Q.** What about the relative viability (NCI-H647; first compound 0.01 µM) of the same molecule?
**A.** The relative viability was 1.63.

**Q.** What about the relative viability (NCI-H647; first compound 0.03162 µM) of the same molecule?
**A.** Its relative viability is 1.37.

**Q.** And the relative viability (NCI-H647; first compound 0.3162 µM)?
**A.** Its relative viability is 1.17.

**Q.** And the relative viability (NCI-H358; first compound 0.01 µM)?
**A.** The relative viability was 0.937.

**Q.** What about the relative viability (NCI-H358; first compound 0.03162 µM) of the same molecule?
**A.** The relative viability was 0.855.

**Q.** And the relative viability (NCI-H358; first compound 0.3162 µM)?
**A.** The relative viability was 0.928.

**Q.** And the relative viability (NCI-H1666; first compound 0.01 µM)?
**A.** Its relative viability is 0.869.

**Q.** And the relative viability (NCI-H1666; first compound 0.03162 µM)?
**A.** Its relative viability is 1.02.

**Q.** What about the relative viability (NCI-H1666; first compound 0.3162 µM) of the same molecule?
**A.** The relative viability was 0.92.

**Q.** What about the relative viability (LOU-NH91; first compound 0.01 µM) of the same molecule?
**A.** Its relative viability is 0.676.

**Q.** And the relative viability (LOU-NH91; first compound 0.03162 µM)?
**A.** The relative viability was 0.775.

**Q.** What about the relative viability (LOU-NH91; first compound 0.3162 µM) of the same molecule?
**A.** The relative viability was 0.699.

**Q.** What about the relative viability (HOP-62; first compound 0.01 µM) of the same molecule?
**A.** Its relative viability is 1.08.

**Q.** What about the relative viability (HOP-62; first compound 0.03162 µM) of the same molecule?
**A.** Its relative viability is 0.973.

**Q.** And the relative viability (HOP-62; first compound 0.3162 µM)?
**A.** Its relative viability is 0.97.

**Q.** And the relative viability (HCC-827; first compound 0.01 µM)?
**A.** The relative viability was 1.11.

**Q.** What about the relative viability (HCC-827; first compound 0.03162 µM) of the same molecule?
**A.** The relative viability was 1.05.

**Q.** And the relative viability (HCC-827; first compound 0.3162 µM)?
**A.** The relative viability was 1.07.

**Q.** What about the relative viability (COR-L 105; first compound 0.01 µM) of the same molecule?
**A.** The relative viability was 0.676.

**Q.** What about the relative viability (COR-L 105; first compound 0.03162 µM) of the same molecule?
**A.** The relative viability was 1.33.

**Q.** And the relative viability (COR-L 105; first compound 0.3162 µM)?
**A.** The relative viability was 0.813.

**Q.** And the relative viability (201T; first compound 0.01 µM)?
**A.** Its relative viability is 1.03.

**Q.** And the relative viability (201T; first compound 0.03162 µM)?
**A.** The relative viability was 1.09.

**Q.** And the relative viability (201T; first compound 0.3162 µM)?
**A.** Its relative viability is 1.02.

**Q.** What about the relative viability (NCI-H1975; first compound 0.01 µM) of the same molecule?
**A.** The relative viability was 0.696.

**Q.** What about the relative viability (NCI-H1975; first compound 0.03162 µM) of the same molecule?
**A.** The relative viability was 0.718.

**Q.** What about the relative viability (NCI-H1975; first compound 0.3162 µM) of the same molecule?
**A.** The relative viability was 0.705.

**Q.** What about the relative viability (NCI-H1395; first compound 0.03162 µM) of the same molecule?
**A.** Its relative viability is 1.06.

**Q.** What about the relative viability (NCI-H1395; first compound 0.3162 µM) of the same molecule?
**A.** The relative viability was 1.08.

**Q.** What about the relative viability (EKVX; first compound 0.01 µM) of the same molecule?
**A.** The relative viability was 0.923.

**Q.** What about the relative viability (EKVX; first compound 0.03162 µM) of the same molecule?
**A.** The relative viability was 1.07.

**Q.** What about the relative viability (EKVX; first compound 0.3162 µM) of the same molecule?
**A.** Its relative viability is 0.978.

**Q.** And the relative viability (NCI-H2126; first compound 0.01 µM)?
**A.** Its relative viability is 0.768.

**Q.** What about the relative viability (NCI-H2126; first compound 0.03162 µM) of the same molecule?
**A.** Its relative viability is 0.698.

**Q.** What about the relative viability (NCI-H2126; first compound 0.3162 µM) of the same molecule?
**A.** The relative viability was 0.769.

**Q.** What about the relative viability (LU99A; first compound 0.01 µM) of the same molecule?
**A.** Its relative viability is 0.49.

**Q.** And the relative viability (LU99A; first compound 0.03162 µM)?
**A.** Its relative viability is 0.651.

**Q.** And the relative viability (LU99A; first compound 0.3162 µM)?
**A.** Its relative viability is 0.555.
